# Measured values published in article PMC4778717 (ChemMedChem, 2015).
# Columns and labels:
# EcSecAN68 = EcSecAN68 (Escherichia coli, UniProt P10408); assay: biochemical; design: species or system E. coli
# S. aureus 6538 = assay: Bacteriostatic effect; assay type: cell-based; settings: for MIC: Staphylococcus aureus, 6538, 24 h, read-out: MIC, S. aureus 6538; for MIC, S. aureus 6538: 24 hr incubation at 37 °C
# E. coli NR698 = assay: Bacteriostatic effect; assay type: cell-based; settings: for MIC: Escherichia coli, NR698, 24 h, read-out: MIC, E. coli NR698; for MIC, E. coli NR698: 24 hr incubation at 37 °C, outer membrane leaky mutant
# S. aureus Mu50 = assay: Bacteriostatic effect; assay type: cell-based
# EcSecAN68, sequence (P10408 1-610): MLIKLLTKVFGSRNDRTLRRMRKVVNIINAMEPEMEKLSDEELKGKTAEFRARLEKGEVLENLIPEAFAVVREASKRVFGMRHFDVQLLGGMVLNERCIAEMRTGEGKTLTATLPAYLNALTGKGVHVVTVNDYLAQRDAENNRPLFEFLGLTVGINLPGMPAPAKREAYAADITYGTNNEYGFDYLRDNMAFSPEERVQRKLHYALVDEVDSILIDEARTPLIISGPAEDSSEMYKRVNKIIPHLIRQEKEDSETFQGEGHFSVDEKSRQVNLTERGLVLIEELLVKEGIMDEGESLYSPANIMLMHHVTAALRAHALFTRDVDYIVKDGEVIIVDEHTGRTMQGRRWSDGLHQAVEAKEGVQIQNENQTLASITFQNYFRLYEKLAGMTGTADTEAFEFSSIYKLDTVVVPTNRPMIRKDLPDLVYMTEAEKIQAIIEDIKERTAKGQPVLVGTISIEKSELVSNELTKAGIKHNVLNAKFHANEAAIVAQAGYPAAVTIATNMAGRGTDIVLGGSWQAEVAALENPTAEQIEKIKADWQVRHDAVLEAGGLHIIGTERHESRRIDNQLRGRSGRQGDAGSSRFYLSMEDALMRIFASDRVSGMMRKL
SMILES,IC50 (EcSecAN68),MIC (S. aureus 6538),MIC (E. coli NR698),"MIC, S. aureus 6538 (S. aureus 6538)","MIC, E. coli NR698 (E. coli NR698)","Fold by which 7b and 12a are more effective than the antibiotic (MIC) (S. aureus Mu50; S. aureus Mu50, label = antibiotic compared)","MIC (S. aureus Mu50; Staphylococcus aureus, MRSA, read-out: MIC, S. aureus Mu50)"
"FC(F)(F)c1cc(-c2nnc(S)[nH]2)cc(C(F)(F)F)c1 [Compound 5a, 5-(3,5-Bis(trifluoromethyl)phenyl)-4H-1,2,4-triazole-3-thiol]",60 µM,> 250 µM,> 250 µM,–,–,–,–
"CSc1nc(C)cc(Sc2nnc(-c3cc(C(F)(F)F)cc(C(F)(F)F)c3)[nH]2)n1 [Compound 7a, 4-((5-(3,5-Bis(trifluoromethyl)phenyl)-4H-1,2,4-triazol-3-yl)thio)-6-methyl-2-(methylthio) pyrimidine]",–,18.8 µM,33.3 µM,–,–,–,–
"CSc1nccc(Sc2nnc(-c3cc(C(F)(F)F)cc(C(F)(F)F)c3)[nH]2)n1 [Compound 7c, 4-((5-(3,5-Bis(trifluoromethyl)phenyl)-4H-1,2,4-triazol-3-yl)thio)-2-(methylthio) pyrimidine]",95 µM,62.5 µM,50 µM,–,–,–,–
"CSc1nccc(Sc2nnc(-c3cc(C)cc(C)c3)[nH]2)n1 [Compound 7d, 4-((5-(3,5-Dimethylphenyl)-4H-1,2,4-triazol-3-yl)thio)-2-(methylthio) pyrimidine]",65 µM,> 250 µM,> 250 µM,–,–,–,–
"CSc1nc(Cl)cc(Sc2nnc(-c3cc(C)cc(C)c3)[nH]2)n1 [Compound 7e, 4-Chloro-6-((5-(3,5-dimethylphenyl)-4H-1,2,4-triazol-3-yl)thio)-2-(methylthio) pyrimidine]",30 µM,50 µM,50 µM,–,–,–,–
"CSc1nc(Cl)cc(Sc2nnc(-c3cccc(F)c3)[nH]2)n1 [Compound 7f, 4-Chloro-6-((5-(3-fluorophenyl)-4H-1,2,4-triazol-3-yl)thio)-2-(methylthio) pyrimidine]",< 50 µM,175 µM,200 µM,–,–,–,–
"CSc1nc(Cl)cc(Sc2nnc(-c3cc(F)cc(F)c3)[nH]2)n1 [Compound 7g, 4-Chloro-6-((5-(3,5-difluorophenyl)-4H-1,2,4-triazol-3-yl)thio)-2-(methylthio) pyrimidine]",> 100 µM,41.6 µM,50 µM,–,–,–,–
"COc1cc(OC)cc(-c2nnc(Sc3cc(Cl)nc(SC)n3)[nH]2)c1 [Compound 7h, 4-Chloro-6-((5-(3,5-dimethoxyphenyl)-4H-1,2,4-triazol-3-yl)thio)-2-(methylthio) pyrimidine]",< 50 µM,> 250 µM,100 µM,–,–,–,–
"CSc1nc(Cl)cc(Sc2nnc(-c3ccc(C(F)(F)F)cc3)[nH]2)n1 [Compound 7i, 4-Chloro-2-(methylthio)-6-((5-(4-(trifluoromethyl)phenyl)-4H-1,2,4-triazol-3-yl)thio) pyrimidine]",< 50 µM,14.6 µM,25 µM,–,–,–,–
"CSc1nc(Cl)cc(Sc2nnc(-c3cccc(C(F)(F)F)c3)[nH]2)n1 [Compound 7j, 4-Chloro-2-(methylthio)-6-((5-(3-(trifluoromethyl)phenyl)-4H-1,2,4-triazol-3-yl)thio) pyrimidine]",< 50 µM,> 250 µM,> 250 µM,–,–,–,–
"Cc1cc(C)cc(-c2nnc(Sc3cc(Cl)ncn3)[nH]2)c1 [Compound 9a, 4-Chloro-6-((5-(3,5-dimethylphenyl)-4H-1,2,4-triazol-3-yl)thio) pyrimidine]",> 200 µM,> 250 µM,> 250 µM,–,–,–,–
"FC(F)(F)c1cc(-c2nnc(Sc3cc(Cl)ncn3)[nH]2)cc(C(F)(F)F)c1 [Compound 9b, 4-((5-(3,5-Bis(trifluoromethyl)phenyl)-4H-1,2,4-triazol-3-yl)thio)-6-chloropyrimidine]",100 µM,18.8 µM,35.4 µM,–,–,–,–
"Cc1cc(C)cc(-c2nnc(Sc3cc(Cl)nc(Sc4ccccc4)n3)[nH]2)c1 [Compound 12b, 4-Chloro-6-((5-(3,5-dimethylphenyl)-4H-1,2,4-triazol-3-yl)thio)-2-(phenylthio) pyri-midine]",–,–,–,12.5 µM,>250 µM,–,–
"FC(F)(F)c1cc(-c2nnc(Sc3cc(Cl)nc(Oc4ccccc4)n3)[nH]2)cc(C(F)(F)F)c1 [Compound 12c, 4-((5-(3,5-Bis(trifluoromethyl)phenyl)-4H-1,2,4-triazol-3-yl)thio)-6-chloro-2-phenoxy-pyrimidine]",9 µM,3.1 µM,8.3 µM,–,–,–,–
"OCCCCSc1nc(Cl)cc(Sc2nnc(-c3cc(C(F)(F)F)cc(C(F)(F)F)c3)[nH]2)n1 [Compound 12e, 4-((4-((5-(3,5-Bis(trifluoromethyl)phenyl)-4H-1,2,4-triazol-3-yl)thio)-6-chloropyri-midin-2-yl)thio) butan-1-ol]",–,–,–,25.0 µM,43.8 µM,–,–
"Fc1cc(F)cc(-c2nnc(Sc3cc(Cl)nc(Sc4ccccc4)n3)[nH]2)c1 [Compound 12f, 4-Chloro-6-((5-(3,5-difluorophenyl)-4H-1,2,4-triazol-3-yl)thio)-2-(phenylthio) pyrimidine]",< 50 µM,20.8 µM,31.3 µM,–,–,–,–
"FC(F)(F)c1cccc(-c2nnc(Sc3cc(Cl)nc(Sc4ccccc4)n3)[nH]2)c1 [Compound 12g, 4-Chloro-2-(phenylthio)-6-((5-(3-(trifluoromethyl)phenyl)-4H-1,2,4-triazol-3-yl)thio) pyrimidine]",< 50 µM,18.8 µM,18.8 µM,–,–,–,–

SMILES,IC50 (EcSecAN68),MIC (S. aureus 6538),MIC (E. coli NR698),"MIC, S. aureus 6538 (S. aureus 6538)","MIC, E. coli NR698 (E. coli NR698)","Fold by which 7b and 12a are more effective than the antibiotic (MIC) (S. aureus Mu50; S. aureus Mu50, label = antibiotic compared)","MIC (S. aureus Mu50; Staphylococcus aureus, MRSA, read-out: MIC, S. aureus Mu50)"
"COc1cc(OC)cc(-c2nnc(Sc3cc(Cl)nc(Sc4ccccc4)n3)[nH]2)c1 [Compound 12h, 4-Chloro-6-((5-(3,5-dimethoxyphenyl)-4H-1,2,4-triazol-3-yl)thio)-2-(phenylthio) pyrimidine]",< 50 µM,≥ 100 µM,> 250 µM,–,–,–,–
"FC(F)(F)c1ccc(-c2nnc(Sc3cc(Cl)nc(Sc4ccccc4)n3)[nH]2)cc1 [Compound 12i, 4-Chloro-2-(phenylthio)-6-((5-(4-(trifluoromethyl)phenyl)-4H-1,2,4-triazol-3-yl)thio) pyrimidine]",< 50 µM,8.3 µM,12.5 µM,–,–,–,–
"COc1cc(O)cc(-c2nnc(Sc3cc(Cl)nc(Sc4ccccc4)n3)[nH]2)c1 [Compound 12j, 3-(5-((6-Chloro-2-(phenylthio)pyrimidin-4-yl)thio)-4H-1,2,4-triazol-3-yl)-5-methoxy phenol]",< 50 µM,≥ 250 µM,> 250 µM,–,–,–,–
"CSc1nc(Cl)cc(Sc2nnc(-c3cc(C(F)(F)F)cc(C(F)(F)F)c3)o2)n1 [Compound 15, 2-(3,5-Bis(trifluoromethyl)phenyl)-5-((6-chloro-2-(methylthio)pyrimidin-4-yl)thio)-1,3,4-oxadiazole]",200 µM,> 250 µM,> 100 µM,–,–,–,–
"FC(F)(F)c1cc(-c2n[nH]c(Sc3nc(Cl)cc(Cl)n3)n2)cc(C(F)(F)F)c1 [Compound 16a, 2-((3-(3,5-Bis(trifluoromethyl)phenyl)-1H-1,2,4-triazol-5-yl)thio)-4,6-dichloropyrimidine]",50 µM,6.3 µM,12.5 µM,–,–,–,–
"Cc1cc(C)cc(-c2n[nH]c(Sc3nc(Cl)cc(Cl)n3)n2)c1 [Compound 16b, 4,6-Dichloro-2-((3-(3,5-dimethylphenyl)-1H-1,2,4-triazol-5-yl)thio) pyrimidine]",–,100 µM,> 164 µM,–,–,–,–
"Fc1cccc(-c2nnc(Sc3nc(Cl)cc(Cl)n3)[nH]2)c1 [Compound 16d, 4,6-Dichloro-2-((5-(3-fluorophenyl)-4H-1,2,4-triazol-3-yl)thio) pyrimidine]",> 100 µM,≥ 100 µM,200 µM,–,–,–,–
"FC(F)(F)c1cc(-c2nnc(Sc3nc(Cl)cc(NCc4ccccc4)n3)[nH]2)cc(C(F)(F)F)c1 [Compound 16e, N-Benzyl-2-((3-(3,5-bis(trifluoromethyl)phenyl)-4H-1,2,4-triazol-5-yl)thio)-6-chloro-pyrimidin-4-amine]",> 50 µM,50 µM,≥ 250 µM,–,–,–,–
"FC(F)(F)c1cc(-c2nnc(Sc3nc(Cl)cc(Cl)n3)o2)cc(C(F)(F)F)c1 [Compound 17, 2-(3,5-Bis(trifluoromethyl)phenyl)-5-((4,6-dichloropyrimidin-2-yl)thio)-1,3,4-oxadiazole]",70 µM,18.8 µM,> 250 µM,–,–,–,–
FC(F)(F)c1cc(-c2n[nH]c(Oc3nc(Cl)cc(Oc4nnc(-c5cc(C(F)(F)F)cc(C(F)(F)F)c5)[nH]4)n3)n2)cc(C(F)(F)F)c1 [Compound 18],< 50 µM,250 µM,> 250 µM,–,–,–,–
"N#Cc1c(-c2ccc(Br)cc2)nc(Sc2nc(Cl)cc(Cl)n2)[nH]c1=O [Compound 20a, 4-(4-Bromophenyl)-2-((4,6-dichloropyrimidin-2-yl)thio)-6-oxo-1,6-dihydropyrimidine-5-carbonitrile]",< 50 µM,> 250 µM,> 250 µM,–,–,–,–
"CCc1ccc(-c2nc(Sc3nc(Cl)cc(Cl)n3)[nH]c(=O)c2C#N)cc1 [Compound 20b, 2-((4,6-Dichloropyrimidin-2-yl)thio)-4-(4-ethylphenyl)-6-oxo-1,6-dihydropyrimidine-5-carbonitrile]",< 50 µM,> 250 µM,> 250 µM,–,–,–,–
CSc1nc(Cl)c2c(n1)Sc1nnc(-c3cc(C(F)(F)F)cc(C(F)(F)F)c3)n1N=C2 [Compound 24],< 25 µM,3.1 µM,12.5 µM,–,–,–,–
CSc1nc(Cl)c2c(n1)Sc1nnc(-c3cc(C(F)(F)F)cc(C(F)(F)F)c3)n1NC2 [Compound 25],46 µM,> 100 µM,> 250 µM,–,–,–,–
CSC1=NC2=C(CN1)CNn1c(nnc1-c1cc(C(F)(F)F)cc(C(F)(F)F)c1)S2 [Compound 26],50 µM,> 100 µM,> 100 µM,–,–,–,–
CC1(C)S[C@@H]2[C@H](NC(=O)[C@H](N)c3ccccc3)C(=O)N2[C@H]1C(=O)O [ampicillin],–,–,–,–,–,> 1300 fold,1000 µg/mL
